Source: patent US12370202B2, “Methods and compositions for inhibiting the NLRP3 inflammasome and/or LON protease” (TRITERPENOID THERAPEUTICS, INC., priority 2019, dated 2025)
One block for each molecule: values may come before it.

Key:
[1] = system: NLRP3; assay: Mono-sodium urate (MSU)-induced peritonitis; assay type: in vivo, Mice; conditions: MSU crystals 1 mg/mouse i.p.; lavage four to sixteen hours later
Experimental: FIG. 7 is a bar graph. CDDO-Im, CDDO-2P-Im, and CDDO-3P-Im inhibit mono-sodium urate (MSU)-induced peritonitis. Peritoneal cavity IL-1β levels expressed as mean and SEM (n=6).
Mice received intraperitoneal (i.p.) injections of mono-sodium urate (MSU) crystals (1 mg/mouse) in the presence or absence of CDDO-Im, CDDO-2P-Im, or CDDO-3P-Im. Due to its particulate material, MSU crystals are potent activators of the NOD-like receptor NLRP3. Four to sixteen hours later a peritoneal lavage was conducted to collect supernatant from the peritoneal cavity.

[2] = system: CCL2; assay: CCL2 expression in LPS-stimulated human macrophages, RT-qPCR; assay type: cell-based; conditions: 16 hours pretreatment, then 10 ng/ml LPS 24 hours
Experimental: FIG. 10 is a bar graph. CDDO-Me, CDDO-Im, CDDO-2P-Im, and CDDO-3P-Im inhibit expression of CCL2 in human macrophages at picomolar concentrations.
Human peripheral blood monocytes were isolated using CD14 magnetic beads and differentiated with 20 ng/ml M-CSF for with 5 days and pretreated or not with 300 nM CDDO-Me; 500 pM CDDO-Im; 500 pM CDDO-2p-Im; 500 pM CDDO-3p-Im for 16 hours, followed by stimulation with 10 ng/ml LPS for an additional 24 hours. Total RNA was extracted and analyzed by RT-qPCR (Tagman) for cytokine expression.

[3] = system: NLRP3 inflammasome; assay: NLRP3 inflammasome activation in LPS-primed BMDM, IL-1β ELISA; assay type: cell-based, mouse; conditions: for IL-1β production by NLRP3 inflammasome activation: LPS primed BMDM, different doses (30-1000 nM) 15 min before ATP (5 mM) 45 min, ELISA
Experimental: FIG. 4A depicts an experimental design and FIG. 4B is a bar graph. Ixazomib (IXZ) potentiation of NLRP3 inflammasome activation inhibited by CDDO-2P-Im. Bone marrow derived macrophages (BMDM) were treated with Ixazomib (IXZ) and LPS (100 ng/ml) for 20 hours. Primed-BMDM were treated with CDDO-2P-Im (100 nM) for 15 min, followed by stimulation of ATP (5 mM) for 45 min. Supernatant were analyzed by ELISA for IL-1β release.
FIG. 6 is a set of bar graphs. CDDO-Im, CDDO-2P-Im (right panel), and CDDO-3P-Im (left panel) inhibit IL-1β production by NLRP3 inflammasome activation. LPS primed-BMDM were treated with different doses of CDDO-Im, CDDO-2P-Im, or CDDO-3P-Im for 15 min before ATP (5 mM) was added for 45 min. Supernatant were analyzed by ELISA for IL-1β.
To explore the potential that CDDO-2P-IM may enhance the MM response to proteasome inhibitors via inhibition of inflammasome activity, the effect of CDDO-2P-IM on activation of the NLRP3 complex (as defined by IL-1β production), in the presence or absence of IXZ in primary mouse bone marrow derived macrophages (BMDM) was evaluated. In the experiment, BMDM were primed by lipopolysaccharide (LPS) in the presence or absence of IXZ for 4 hours, followed by a brief ([…]) exposure to CDDO-2P-IM after which inflammasome activation was triggered by ATP.
(§1) The effects of the pyridyl derivatives of CDDO-IM, (specifically, CDDO-2P-Im and CDDO-3P-Im) on NLRP3 inflammasome activation were tested in mouse BMDMs. Cells were first primed with LPS for 4 hours, then pretreated with specific doses of either CDDO-Im, CDDO-2P-IM or CDDO-3P-Im (30-1000 nM) for 15 min before ATP was added for another 45 min. CDDO-Im and its pyridyl derivatives inhibited the amount of caspase-p10 (an auto-processed fragment of caspase-1) released into cell culture supernatants in a dose-dependent manner as measured by Western blot (FIG. 5). […] The effect on caspase-1 activation is specific for the NLRP3 inflammasome as the AIM2 inflammasome activation by poly(dA:dT) was not inhibited by the synthetic CDDO-Im derivatives (data not shown).

[4] = system: Caspase 1; assay: Caspase 1 activation in LPS-primed BMDM, immunoblotting (caspase-p10); assay type: cell-based, mouse; conditions: different doses (30-1000 nM) 15 min before ATP (5 mM) 45 min
Experimental: FIG. 5 depicts a Western blot. CDDO-Im, CDDO-2P-Im, and CDDO-3P-Im inhibit Caspase 1 activation. LPS primed BMDM were treated with different doses of CDDO-Im, CDDO-2P-Im, or CDDO-3P-Im for 15 min before ATP (5 mM) was added for 45 min. Medium supernatant (SUP) and cell extracts (Lys) were analyzed by immunoblotting.
as §1

[5] = system: ARH77 cells; assay: MM cell proliferation (confluence), IncuCyte imaging; assay type: cell-based, human; conditions: 150 nM TTX01 or 10 nM IXZ alone, 72 hours
Experimental: (§2) FIG. 2 is a bar graph. CDDO-2P-Im inhibits proliferation of multiple myeloma cell line in vitro. 5T33MM, RPMI8226, and ARH77 cells were seeded in 96-well plates and incubated with CDDO-2P-Im (50 nM-150 nM). Confluence (cell proliferation) was measured using IncuCyte imaging after 72 hours. *p<0.01 compared to control.
(§3) FIG. 3 is a bar graph. […] Shown here are results for 5T33MM (50 nM TTX01/7.5 nM IXZ); RPMI8226 (100 nM TTX01/7.5 nM IXZ); and ARH77 (150 nM TTX01/10 nM IXZ). Confluence (cell proliferation) was measured using IncuCyte imaging after 72 hours.
(§4) To examine tumor-intrinsic effects of CDDO-2P-IM in the 5T33MM cell line and in human MM cells, conducted a series of in vitro studies was conducted. For these experiments, 96-well plates were first coated in poly-L-ornithine before cells were seeded (in triplicate), including the murine 5T33MM and the human RPMI8226, and ARH77 cell lines (15,000 cells per well). Cells were incubated in IncuCyte™ Live-Cell Analysis System for 72 hours (images were taken every 4 hours). To define dose-dependent effect of CDDO-2P-IM, cells were exposed to concentrations ranging from 50 nM to 150 nM. To examine potential synergy of CDDO-2P-IM with IXZ, MM cells were exposed to IXZ (7 nM-10 nM) either alone or in combination with CDDO-2P-IM.

[6] = system: RPMI8226 cells; assay: as above; assay type: cell-based, human; conditions: 100 nM TTX01 or 7.5 nM IXZ alone, 72 hours
Experimental: as §2, §3, §4

[7] = system: 5T33MM cells; assay: as above; assay type: cell-based, murine; conditions: 50 nM TTX01 or 7.5 nM IXZ alone, 72 hours
Experimental: as §2, §3, §4

[8] = system: CP70; assay: Ovarian cancer cell growth (confluence), IncuCyte ZOOM; assay type: cell-based, human; conditions: cisplatin dose used in the combination
Source text: (§5) FIG. 11 is a set of line graphs. Cisplatin resistant human ovarian cancer cell lines A2780, CP70, OV81, CP10, OVCAR-5 and OVCAR-8 were exposed to CDDO-2P-Im, cisplatin, or a combination of CDDO-2P-Im and cisplatin.
(§6) CDDO-2P-Im suppresses growth of cisplatin-resistant human ovarian cancer cells in vitro. Cisplatin resistant human ovarian cancer cell lines A2780, CP70, OV81, CP10, OVCAR-5 and OVCAR-8 cell were each cultured in a complete medium consisting of RPMI1640, 20% heat-inactivated FBS, 1% penicillin/streptomycin. Cells were cultured in a water jacketed CO2 incubator at 37° C. in a humidified atmosphere consisting of 5% CO2 and 95% air. Continuous live-cell analysis (CLCA) was used as a non-invasive cell monitoring and measurement method based on time-lapse, phase-contrast microscopy and fluorescence imaging, using IncuCyte® ZOOM. Cells were seeded in 96-well plates at densities of either 1×10^4 or 3×10^4 cell/cm^2 followed by addition of a drug dilution series for either CDDO-2P-Im or Cisplatin (P4394, Sigma) dissolved in PBS and diluted in media. […] Reduction in confluence is accompanied by the detachment and death of ovarian cancer cells.

[9] = system: OV81; assay: as above; assay type: cell-based, human; conditions: cisplatin dose used in the combination
Source text: as §5, §6

[10] = system: OVCAR-5; assay: as above; assay type: cell-based, human; conditions: cisplatin dose used in the combination
Source text: as §5, §6

[11] = system: A2780; assay: as above; assay type: cell-based, human; conditions: cisplatin dose used in the combination
Source text: as §5, §6

[12] = system: OVCAR-8; assay: as above; assay type: cell-based, human; conditions: cisplatin dose used in the combination
Source text: as §5, §6

[13] = system: CP10; assay: as above; assay type: cell-based, human; conditions: cisplatin dose used in the combination
Source text: as §5, §6

- Caspase 1 activation (caspase-p10 released into supernatant) [4]: inhibit
Compound: CC1(C)CC[C@]2(C(=O)n3cnc(-c4cccnc4)c3)CC[C@]3(C)[C@H](C(=O)C=C4[C@@]5(C)C=C(C#N)C(=O)C(C)(C)[C@@H]5CC[C@]43C)[C@@H]2C1 [CDDO-3P-Im, 1-[2-Cyano-3,12-dioxooleana-1,9(11)-dien-28-oyl]-4(-pyridin-3-yl)-1H-imidazole]
- MSU-induced peritonitis (peritoneal cavity IL-1β levels) [1]: inhibit
- expression of CCL2 ([2]; 500 pM): inhibit
- IL-1β production by NLRP3 inflammasome activation [3]: inhibit

- Caspase 1 activation (caspase-p10 released into supernatant) [4]: inhibit
Compound: CC1(C)CC[C@]2(C(=O)n3ccnc3)CC[C@]3(C)[C@H](C(=O)C=C4[C@@]5(C)C=C(C#N)C(=O)C(C)(C)[C@@H]5CC[C@]43C)[C@@H]2C1 [CDDO-Im, 1-(2-cyano-3,12-dioxooleana-1,9(11)-dien-28-oyl) imidazole, reference compound]
- MSU-induced peritonitis (peritoneal cavity IL-1β levels) [1]: inhibit
- expression of CCL2 ([2]; 500 pM): inhibit
- IL-1β production by NLRP3 inflammasome activation [3]: inhibit

Compound: COC(=O)[C@]12CCC(C)(C)C[C@H]1[C@H]1C(=O)C=C3[C@@]4(C)C=C(C#N)C(=O)C(C)(C)[C@@H]4CC[C@@]3(C)[C@]1(C)CC2 [CDDO-Me, reference compound]
- expression of CCL2 ([2]; 300 nM): inhibit

Compound: CC(C)C[C@H](NC(=O)CNC(=O)c1cc(Cl)ccc1Cl)B(O)O [IXZ, reference compound]
- IL-1β release (NLRP3 inflammasome activation), effect of IXZ during LPS priming ([3]; BMDM, IXZ and LPS (100 ng/ml), ATP (5 mM) 45 min): potentiation
- proliferation (confluence), agent added alone [5]: only partially effective
- proliferation (confluence), agent added alone [6]: only partially effective
- proliferation (confluence), agent added alone [7]: only partially effective

Compound: N.N.[Cl][Pt][Cl] [cisplatin, cis-diamminedichloroplatinum(II), reference compound]
- ovarian cancer cell kill, cisplatin alone [8]: absolutely no effect
- ovarian cancer cell kill, cisplatin alone [9]: absolutely no effect
- ovarian cancer cell kill, cisplatin alone [10]: absolutely no effect
- ovarian cancer cell kill, cisplatin alone [11]: absolutely no effect
- ovarian cancer cell kill, cisplatin alone [12]: absolutely no effect
- ovarian cancer cell kill, cisplatin alone [13]: absolutely no effect
